In US10501453B2, “Benzothiazole or benzoxazole compounds as SUMO activators” (Icahn School of Medicine at Mount Sinai, priority 2012, dated 2019):
Values after ≈ are worked out from the molar mass of the structure shown.

Columns and labels:
[1] = test system: HEK-293 cells; experiment: Toxicity (Table 2; cytotoxicity in the compound screen)
[2] = Solubility (Table 2)
[3] = test system: YFP-SUMO1; experiment: YFP-SUMO1 accumulation (cell image) in HEK-293 cells expressing YFP-SUMO1 and pcDNA3.0-SERCA2a; format: cell-based; conditions: increase vs. DMSO; for fold induction at 10 µM: Homo sapiens, HEK293, 24 hours; for YFP accumulation: 10 μM, 24 hours
From the text: (§1) The following antibodies were used for immunoblotting and immunoprecipitation (IP): polyclonal anti-SERCA2a (21th century Biochem Inc.), monoclonal anti-GAPDH (Sigma-Aldrich, catalog no. G8795), monoclonal anti-SUMO 1 (Cell Signaling Technology Inc., catalog no. 4930), anti-mouse horseradish peroxidase (HRP) (Pierce Biotechnology Inc., catalog no. 32430), and anti-rabbit HRP (Pierce Biotechnology Inc., catalog no. 32460). YFP-tagged SUMO1, pcDNA3.0-SERCA2a, and HA-tagged Ubc9 plasmids were used for the transfection. The plasmid DNA was amplified in the Escherichia coli strain DH5a and extracted by using a commercial purification kit (Qiagen, catalog no. 12263). Purified plasmid was resuspended in sterile TE buffer (10 mM Tris-HCl and 1 mM EDTA, pH 7.6). Only the preparation highest purity (A260/A280>1.8) was used for transfection. 1 μg of each plasmid was used for transfection. HEK-293 cells (American Type Culture Collection, catalog no. CRL-1873) were grown at 37° C. and under a 5% CO2 humidified atmosphere in Dulbecco's modified Eagle's medium (DMEM, Cellgro, catalog no. 10-0 13-CM) containing 10% fetal bovine serum (SAFC Bioscience, catalog no. 12107) and 100 i.u of penicillin/ml and 100 μg of streptomycin/ml. HEK-293 cells were seeded at a density of 3-5×10^5 cells per 60 mm culture dish in DMEM. The cells were transiently transfected using Lipofectamine 2000 (Invitrogen, catalog no. 11668) with indicated expression plasmids. After 24 hours, the cells were treated with either small molecules or dimethyl sulfoxide (DMSO, Sigma-Aldrich, catalog no. D2650).
(§2) Each compound was added at 10 μM. DMSO was used as a control. After 24 hours at 37° C., SERCA2a SUMOylation and functional analysis were determined.
Cellular permeability and potential activity of the compounds were examined by tracking of the YFP-SUMO1. HEK-293 cells expressing YFP-SUMOI and pcDNA3.0-SERCA2a were incubated with either 10 μM DMSO or 10 μM small molecules for 24 hours at 37° C. Fluorescent signals were monitored by fluorescence microscopy. HA-tagged Ubc9 expressing cells were served as a positive control.
The ability of the Example compound to SUMOylate SERCA2a was examined using an in vitro system in HEK 293 cells where both SERCA2a and SUMO 1 are expressed. The cellular permeability and potential activity of the Example compounds was examined by tracking of the YFP-SUM01. HEK-293 cells expressing YFP-SUM01 and pcDNA3.0-SERCA2a were treated with either 10 μM DMSO or 10 μM indicated Example 1 for 24 hrs. Fluorescent signals were monitored by fluorescence microscopy. HA-Ubc9 expressing cells were served as a positive control. The SERCA2a SUMOylation profiling was then analyzed by using the same cells (FIG. 1B, WCL, whole cell lysates; S-SERCA2a, SUMOylated SERCA2a).

[4] = test system: SERCA2a; experiment: SERCA2a SUMOylation assay in HEK-293 cells (immunoprecipitation/immunoblotting); format: cell-based; conditions: compared with DMSO control; 10 μM
From the text: as §1, §2
Equal amounts of protein from either small molecule treated or DMSO treated cells or immunoprecipitates were resolved by 7.5% SDS-PAGE and transferred to nitrocellulose membranes (Bio-Rad, catalog no. 162-0112). The membranes were blocked for 1 hour at room temperature with 5% non-fat milk (Cell Signaling Technology Inc., catalog no. 9999) in TBST (10 mM Tris-HCl, 150 mM NaCl, and 0.05% tween-20, pH 8.0). The blots were incubated with specific primary antibodies at 4° C. for overnight. The blots were then washed five times for 10 minutes each with TBST and incubated for 1 hour with HRP-conjugated secondary antibodies in TBST with 5% non-fat milk. After five times TBST washes, the protein bands were visualized with enhanced chemiluminescence (Pierce Biotechnology Inc., catalog no. 32132) and exposed to x-ray film (Denville Scientific Inc., catalog no. E3012). GAPDH expression provided an internal control.
Post-transfection (48 hours), the HEK-293 cells were rinsed twice with phosphate-buffered saline (PBS, Cellgro, catalog no. 21-040-CM) and lysed in 1% Nonidet P-40 lysis buffer (Boston Bioproducts, catalog no. BP-119) with 10 mM N-ethylmaleimide (NEM, Sigma-Aldrich, catalog no. N3876) and […] inhibitor cocktail (Complete Mini Tablet, Roche Applied Science, catalog no. 11836153001). 2 mg of protein were mixed with the anti-SERCA2a antibodies for overnight at 4° C. in lysis buffer. Pre-washed protein A-Separose beads (Pierce Biotechnology Inc., catalog no. 20333) was added to each sample and incubated 1 hour at 4° C. with gentle rocking. Immunocomplexes were washed with lysis buffer three times and precipitated by centrifugation at 12000×g for 10 seconds. The immunocomplexes were resuspended in SDS sample buffer and subjected to immunoblotting. Controls for the immunoprecipitations were performed using an anti-rabbit IgG equal to that of the primary precipitating antibody. Ten percent of whole cell lysates used in the immunoprecipitation was loaded for subsequent immunoblotting.
The ability of the Example compound to SUMOylate SERCA2a was examined using an in vitro system in HEK 293 cells where both SERCA2a and SUMO 1 are expressed. […]

[5] = DMSO, organic solvent or mixture

| Structure (SMILES) | Toxicity [1] | solubility [2, 5] [mM] | fold induction at 10 µM [3] | SERCA2a SUMOylation [4] | solubility ([2]; in DMSO (printed for the 10 mM cells)) | YFP accumulation [3] |
| --- | --- | --- | --- | --- | --- | --- |
| COc1cccc2sc(Nc3nnc(-c4ccc(F)cc4)o3)nc12 [Example 5, 5-(4-fluorophenyl)-N-(4-methoxybenzo[d]thiazol-2-yl)-1,3,4-oxadiazol-2-amine] | Non-toxic | 10 (≈ 3420 µg/mL) | 2.54 | Not statistically significant | – | – |
| COc1ccc(-c2nnc(Nc3nc4c(OC)cccc4s3)o2)c(OC)c1 [Example 6, 5-(2,4-dimethoxyphenyl)-N-(4-methoxybenzo[d]thiazol-2-yl)-1,3,4-oxadiazol-2-amine] | 30% | 10 (≈ 3840 µg/mL) | 2.93 | Not statistically significant | – | – |
| Fc1cccc2sc(Nc3nnc(-c4ccccc4)o3)nc12 [Example 7, N-(4-fluorobenzo[d]thiazol-2-yl)-5-phenyl-1,3,4-oxadiazol-2-amine] | Non-toxic | 10 (≈ 3120 µg/mL) | 2.2 | Not statistically significant | – | – |
| COc1ccc2nc(Nc3nnc(-c4ccccc4OC)o3)sc2c1 [Example 8, N-(6-methoxybenzo[d]thiazol-2-yl)-5-(2-methoxyphenyl)-1,3,4-oxadiazol-2-amine] | 30% | 10 (≈ 3540 µg/mL) | 2.37 | Not statistically significant | – | – |
| COc1ccc(-c2nnc(Nc3nc4ccc(OC)cc4s3)o2)cc1 [Example 9, N-(6-methoxybenzo[d]thiazol-2-yl)-5-(4-methoxyphenyl)-1,3,4-oxadiazol-2-amine] | Toxic | – | – | Not statistically significant | Crystallized at 2.5 | Active |
| COc1ccc2nc(Nc3nnc(-c4ccc(Cl)cc4)o3)sc2c1 [Example 10, 5-(4-chlorophenyl)-N-(6-methoxybenzo[d]thiazol-2-yl)-1,3,4-oxadiazol-2-amine] | > 50% | < 2.5 | – | Not statistically significant | – | Active |
| Fc1ccc2nc(Nc3nnc(-c4ccccc4Cl)o3)sc2c1 [Example 11, 5-(2-chlorophenyl)-N-(6-fluorobenzo[d]thiazol-2-yl)-1,3,4-oxadiazol-2-amine] | > 50% | < 2.5 | – | Not statistically significant | – | Active |
| Fc1ccc(-c2nnc(Nc3nc4ccc(F)cc4s3)o2)cc1 [Example 12, N-(6-fluorobenzo[d]thiazol-2-yl)-5-(4-fluorophenyl)-1,3,4-oxadiazol-2-amine] | > 50% | < 2.5 | – | Not statistically significant | – | Active |
| COc1cccc(-c2nnc(Nc3nc4ccc(F)cc4s3)o2)c1 [Example 13, N-(6-fluorobenzo[d]thiazol-2-yl)-5-(3-methoxyphenyl)-1,3,4-oxadiazol-2-amine] | > 50% | < 2.5 | – | Not statistically significant | – | Active |
| COc1cccc(-c2nnc(Nc3nc4cc(OC)ccc4s3)o2)c1 [Example 15, N-(5-methoxybenzo[d]thiazol-2-yl)-5-(3-methoxyphenyl)-1,3,4-oxadiazol-2-amine] | > 50% | < 2.5 | – | Not statistically significant | – | Active |
| COc1ccc(-c2nnc(Nc3nc4cc(OC)ccc4s3)o2)cc1 [Example 16, N-(5-methoxybenzo[d]thiazol-2-yl)-5-(4-methoxyphenyl)-1,3,4-oxadiazol-2-amine] | > 50% | < 2.5 | – | Not statistically significant | – | Active |
| COc1ccc(-c2nnc(Nc3nc4cc(OC)c(OC)cc4s3)o2)cc1 [Example 17, N-(5,6-dimethoxybenzo[d]thiazol-2-yl)-5-(4-methoxyphenyl)-1,3,4-oxadiazol-2-amine] | Non-toxic | 5 (≈ 1920 µg/mL) | 2.2 | Not statistically significant | – | – |
| COc1ccc(-c2nnc(Nc3nc4ccc(SC)cc4s3)o2)cc1 [Example 18, 5-(4-methoxyphenyl)-N-(6-(methylthio)benzo[d]thiazol-2-yl)-1,3,4-oxadiazol-2-amine] | > 50% | < 2.5 | – | Not statistically significant | – | Active |
